Assay results from US20100298141A1, “SUBSTITUTED PYRIDINE N-OXIDE HERBICIDES” (E. I. DU PONT DE NEMOURS AND COMPANY, priority 2007, published 2010).

How the values were obtained:
[1] = tested on: morningglory; experiment: Test A pre-/postemergence greenhouse test; assay type: in vivo, Ipomoea spp.; conditions: for Plant response rating, Morningglory: 0 to 100 scale where 0 is no effect and 100 is complete control; for Morningglory plant response rating: 0 to 100 scale
Procedure, shortened: (§1)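 Sowing in loam/sand; same-day pre (directed soil spray) and post (foliar, 1–2 leaf, 2–10 cm) treatment with surfactant-containing non-phytotoxic solvent formulation; ~10 days in greenhouse; eye-scored injury against untreated plants.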

[2] = tested on: redroot pigweed; experiment: Test A pre-/postemergence greenhouse test; assay type: in vivo, Amaranthus retroflexus; conditions: for Plant response rating, Pigweed: 0 to 100 scale where 0 is no effect and 100 is complete control; for Pigweed plant response rating: 0 to 100 scale
Procedure, shortened: as §1

[3] = tested on: blackgrass; experiment: Test C pre-/postemergence test; assay type: in vivo, Alopecurus myosuroides
Procedure, shortened: (§2)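 Test chemicals were formulated with surfactant in a non-phytotoxic solvent and sprayed both on freshly planted seeds (preemergence) and on 1- to 4-leaf plants of 2–18 cm (postemergence). Flooded-paddy pots received compound directly into 3 cm of standing water, maintained for the test.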

[4] = tested on: downy brome; experiment: Test C pre-/postemergence test; assay type: in vivo, Bromus tectorum
Procedure, shortened: as §2

[5] = tested on: green foxtail; experiment: Test C pre-/postemergence test; assay type: in vivo, Setaria viridis
Procedure, shortened: as §2

[6] = tested on: wild oat; experiment: Test C pre-/postemergence test; assay type: in vivo, Avena fatua
Procedure, shortened: as §2

[7] = tested on: catchweed bedstraw; experiment: Test C pre-/postemergence test; assay type: in vivo, Galium aparine
Procedure, shortened: as §2

[8] = tested on: bermudagrass; experiment: Test C pre-/postemergence test; assay type: in vivo, Cynodon dactylon
Procedure, shortened: as §2

[9] = tested on: cocklebur; experiment: Test C pre-/postemergence test; assay type: in vivo, Xanthium strumarium
Procedure, shortened: as §2

[10] = tested on: woolly cupgrass; experiment: Test C pre-/postemergence test; assay type: in vivo, Eriochloa villosa
Procedure, shortened: as §2

[11] = tested on: kochia; experiment: Test C pre-/postemergence test; assay type: in vivo, Kochia scoparia
Procedure, shortened: as §2

[12] = tested on: lambsquarters; experiment: Test C pre-/postemergence test; assay type: in vivo, Chenopodium album
Procedure, shortened: as §2

[13] = tested on: yellow nutsedge; experiment: Test C pre-/postemergence test; assay type: in vivo, Cyperus esculentus
Procedure, shortened: as §2

[14] = tested on: soybean; experiment: Test C pre-/postemergence test; assay type: in vivo, Glycine max
Procedure, shortened: as §2

[15] = tested on: rice; experiment: Test C flooded paddy test; assay type: in vivo, Oryza sativa; conditions: Flood
Procedure, shortened: (§3)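 Greenhouse pots flooded to 3 cm above soil at time of treatment received compound via the water, which stayed at that level.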

[16] = tested on: duck salad; experiment: Test C flooded paddy test; assay type: in vivo, Heteranthera limosa; conditions: Flood
Procedure, shortened: as §3

[17] = Postemergence, 500 g ai/ha, 0 is no effect, 100 is complete control
[18] = Preemergence, 125 g ai/ha, 0 no effect, 100 complete control
[19] = 62 g ai/ha, Preemergence, scale 0 to 100
[20] = Preemergence, 31 g ai/ha, scale 0 to 100 (0 no effect, 100 complete control)
[21] = preemergence, 250 g ai/ha, scale 0 (no effect) to 100 (complete control)
[22] = 125 g ai/ha, preemergence, scale 0 (no effect) to 100 (complete control)
[23] = 31 g ai/ha, scale 0 to 100 (0 no effect, 100 complete control)
[24] = 62 g ai/ha, scale 0 to 100, 0 no effect, 100 complete control, 13 to 15 days
[25] = 125 g ai/ha, scale 0 to 100, 0 no effect, 100 complete control, 13 to 15 days
[26] = 250 g ai/ha, scale 0 to 100, 0 no effect, 100 complete control, 13 to 15 days
[27] = Postemergence, 125 g ai/ha, 0 is no effect, 100 is complete control
[28] = 31 g ai/ha, Preemergence, scale 0 to 100
[29] = 62 g ai/ha, preemergence, scale 0 (no effect) to 100 (complete control)
[30] = preemergence, 125 g ai/ha, scale 0 (no effect) to 100 (complete control)
[31] = 250 g ai/ha, scale 0 to 100 (0 no effect, 100 complete control)

## Cn1nc(C(F)(F)F)c(C[S+]([O-])c2ccc(F)c[n+]2[O-])c1Cl (stereo not shown) [Compound 54]
[1]; Postemergence, 125 g ai/ha
  Plant response rating, Morningglory: 60
[1]; [17]
  Morningglory plant response rating: 90
[1]; [18]
  Morningglory plant response rating: 10
[1]; Preemergence, 500 g ai/ha
  Plant response rating, Morningglory: 80
[2]; Postemergence, 125 g ai/ha
  Plant response rating, Pigweed: 40
[2]; [17]
  Pigweed plant response rating: 60
[2]; [18]
  Pigweed plant response rating: 90
[2]; Preemergence, 500 g ai/ha
  Plant response rating, Pigweed: 100
[3]; [19]
  Blackgrass plant response rating: 50
[3]; [20]
  Plant response rating, Blackgrass: 0
[3]; [21]
  Blackgrass plant response rating: 85
[4]; [19]
  Bromegrass, Downy plant response rating: 0
[4]; [22]
  Bromegrass, Downy plant response rating: 10
[4]; [20]
  Plant response rating, Bromegrass, Downy: 0
[4]; [21]
  Bromegrass, Downy plant response rating: 60
[5]; [19]
  Foxtail, Green plant response rating: 95
[5]; [22]
  Foxtail, Green plant response rating: 95
[5]; [20]
  Plant response rating, Foxtail, Green: 60
[5]; [21]
  Foxtail, Green plant response rating: 95
[6]; [19]
  Oat, Wild plant response rating: 10
[6]; [22]
  Oat, Wild plant response rating: 30
[6]; [20]
  Plant response rating, Oat, Wild: 0
[6]; [21]
  Oat, Wild plant response rating: 40
[7]; [19]
  Galium plant response rating: 0
[7]; [22]
  Galium plant response rating: 85
[7]; [20]
  Plant response rating, Galium: 0
[7]; [21]
  Galium plant response rating: 85
[8]; 62 g ai/ha, Preemergence, scale 0 to 100 (0 no effect, 100 complete control)
  Bermudagrass plant response rating: 100
[8]; [22]
  Bermudagrass plant response rating: 100
[8]; [20]
  Plant response rating, Bermudagrass: 98
[8]; [21]
  Bermudagrass plant response rating: 100
[9]; [19]
  Cocklebur plant response rating: 0
[9]; [22]
  Cocklebur plant response rating: 0
[9]; [20]
  Plant response rating, Cocklebur: 0
[9]; [21]
  Cocklebur plant response rating: 0
[10]; [19]
  Cupgrass, Woolly plant response rating: 85
[10]; [22]
  Cupgrass, Woolly plant response rating: 95
[10]; [20]
  Plant response rating, Cupgrass, Woolly: 85
[10]; [21]
  Cupgrass, Woolly plant response rating: 98
[11]; [19]
  Kochia plant response rating: 100
[11]; [22]
  Kochia plant response rating: 100
[11]; [20]
  Plant response rating, Kochia: 50
[11]; [21]
  Kochia plant response rating: 100
[12]; [19]
  Lambsquarters plant response rating: 90
[12]; [22]
  Lambsquarters plant response rating: 100
[12]; [20]
  Plant response rating, Lambsquarters: 0
[12]; [21]
  Lambsquarters plant response rating: 100
[13]; [19]
  Nutsedge, Yellow plant response rating: 65
[13]; [22]
  Nutsedge, Yellow plant response rating: 100
[13]; [20]
  Plant response rating, Nutsedge, Yellow: 0
[13]; [21]
  Nutsedge, Yellow plant response rating: 100
[14]; [20]
  Plant response rating, Soybean: 0
[14]; [21]
  Soybean plant response rating: 60
[15]; [23]
  Plant response rating, Rice: 0
[15]; [24]
  Plant response rating, Rice: 0
[15]; [25]
  Plant response rating, Rice: 15
[15]; [26]
  Plant response rating, Rice: 40
[16]; [23]
  Plant response rating, Ducksalad: 0
[16]; [24]
  Plant response rating, Ducksalad: 0
[16]; [25]
  Plant response rating, Ducksalad: 0
[16]; [26]
  Plant response rating, Ducksalad: 85

## Cc1cc[n+]([O-])c(S(=O)(=O)C(C)c2c(C(F)(F)F)nn(C)c2Cl)c1 (racemic) [Compound 14]
[1]; [27]
  Morningglory plant response rating: 30
[1]; [17]
  Morningglory plant response rating: 50
[1]; [18]
  Morningglory plant response rating: 10
[1]; Preemergence, 500 g ai/ha
  Plant response rating, Morningglory: 100
[2]; [27]
  Pigweed plant response rating: 0
[2]; [17]
  Pigweed plant response rating: 10
[2]; [18]
  Pigweed plant response rating: 100
[2]; Preemergence, 500 g ai/ha
  Plant response rating, Pigweed: 100
[3]; [28]
  Blackgrass plant response rating: 40
[3]; [29]
  Blackgrass plant response rating: 80
[3]; Preemergence, 250 g ai/ha
  Plant response rating (0 to 100), Blackgrass: 80
[4]; [28]
  Bromegrass, Downy plant response rating: 30
[4]; [29]
  Bromegrass, Downy plant response rating: 35
[4]; Preemergence, 250 g ai/ha
  Plant response rating (0 to 100), Bromegrass, Downy: 70
[4]; [30]
  Bromegrass, Downy plant response rating: 70
[5]; [28]
  Foxtail, Green plant response rating: 90
[5]; [29]
  Foxtail, Green plant response rating: 100
[5]; Preemergence, 250 g ai/ha
  Plant response rating (0 to 100), Foxtail, Green: 100
[5]; [30]
  Foxtail, Green plant response rating: 100
[6]; [28]
  Oat, Wild plant response rating: 0
[6]; [29]
  Oat, Wild plant response rating: 0
[6]; Preemergence, 250 g ai/ha
  Plant response rating (0 to 100), Oat, Wild: 75
[6]; [30]
  Oat, Wild plant response rating: 10
[7]; [28]
  Galium plant response rating: 0
[7]; [29]
  Galium plant response rating: 100
[7]; Preemergence, 250 g ai/ha
  Plant response rating (0 to 100), Galium: 100
[7]; [30]
  Galium plant response rating: 100
[8]; [28]
  Bermudagrass plant response rating: 80
[8]; [29]
  Bermudagrass plant response rating: 100
[8]; Preemergence, 250 g ai/ha
  Plant response rating (0 to 100), Bermudagrass: 100
[8]; [30]
  Bermudagrass plant response rating: 100
[9]; [28]
  Cocklebur plant response rating: 0
[9]; [29]
  Cocklebur plant response rating: 0
[9]; Preemergence, 250 g ai/ha
  Plant response rating (0 to 100), Cocklebur: 10
[9]; [30]
  Cocklebur plant response rating: 10
[10]; [28]
  Cupgrass, Woolly plant response rating: 85
[10]; [29]
  Cupgrass, Woolly plant response rating: 85
[10]; Preemergence, 250 g ai/ha
  Plant response rating (0 to 100), Cupgrass, Woolly: 100
[10]; [30]
  Cupgrass, Woolly plant response rating: 90
[11]; [28]
  Kochia plant response rating: 0
[11]; [29]
  Kochia plant response rating: 0
[11]; Preemergence, 250 g ai/ha
  Plant response rating (0 to 100), Kochia: 100
[11]; [30]
  Kochia plant response rating: 100
[12]; [28]
  Lambsquarters plant response rating: 30
[12]; [29]
  Lambsquarters plant response rating: 100
[12]; Preemergence, 250 g ai/ha
  Plant response rating (0 to 100), Lambsquarters: 100
[12]; [30]
  Lambsquarters plant response rating: 100
[13]; [28]
  Nutsedge, Yellow plant response rating: 40
[13]; [29]
  Nutsedge, Yellow plant response rating: 70
[13]; Preemergence, 250 g ai/ha
  Plant response rating (0 to 100), Nutsedge, Yellow: 100
[13]; [30]
  Nutsedge, Yellow plant response rating: 98
[14]; [28]
  Soybean plant response rating: 0
[14]; [29]
  Soybean plant response rating: 0
[14]; Preemergence, 250 g ai/ha
  Plant response rating (0 to 100), Soybean: 85
[14]; [30]
  Soybean plant response rating: 5
[15]; [23]
  Plant response rating, Rice: 0
[15]; [24]
  Plant response rating, Rice: 0
[15]; [25]
  Plant response rating, Rice: 60
[15]; [31]
  Plant response rating, Rice: 70
[16]; [23]
  Plant response rating, Ducksalad: 40
[16]; [24]
  Plant response rating, Ducksalad: 50
[16]; [25]
  Plant response rating, Ducksalad: 80
[16]; [31]
  Plant response rating, Ducksalad: 100
